# Test system: phosphorylation of Retinoblastoma Protein (pRb Ser807/811 or Ser780) in T47D cells
# Experiment: Inhibition of phosphorylation of retinoblastoma protein (pRb) in T47D cell (ELISA)
# Assay type: cell-based, human
# Settings: Homo sapiens, T47D, read-out: Phospho T47D Ser807 IC50, pRb Ser807 phosphorylation, T47D cells
# Protocol: T47D breast cancer cells from American Type Culture Collection (ATCC, HTB-133) were plated at 40,000 cells/well in 96-well plates, and were incubated in RPMI 1640 medium (Gibco, 31800105) with 10% Fetal Bovine Serum (FBS, Biowest, FB-1058). Cells were then allowed to adhere overnight at 37° C., 5% CO2. The following day, compounds were titrated in a 3-fold dilution scheme, and the highest compound concentration tested was […]. After 24 hours incubation with compounds, cells were lysed in ice-cold lysis buffer containing phosphatase inhibitor cocktail and 1 mM PMSF. Cell lysates (50 μL/well) were then transferred to ELISA plates (pRb Ser807/811 ELISA kit, Cell Signaling, 13152 or pRb Ser780 ELISA kit, Cell Signaling, 13016)). Plates were incubated overnight at 4° C., with constant slow speed shaking. After incubation, plates were washed following manufacturer's recommendations, and then 100 μL reconstituted detection antibody was added to each well and incubated for 1 hour at 37° C. After incubation, plates were washed, and then 100 μL reconstituted HRP-linked secondary antibody was added to each well and incubated for 30 mins at 37° C. After incubation, plates were washed. Then, 100 μL TMB substrate was added to each well and incubated for 10 min at 37° C. or 30 min at 25° C. Finally, 100 μL of STOP solution was added to each well and mixed gently for a few seconds. Plates were read on the Envision plate reader (PerkinElmer, 2104-0010) using the 96-well […] mode. IC50 values were calculated using 4 parameter sigmoidal dose-response model of Xlfit5/GraphPad Prism 5 software.
row,SMILES,IC50 [nM]
1,CC(C)c1cnn2ccc(-c3ccnc(Nc4ccn(CC5CCN(C(=O)CO)CC5)n4)n3)cc12 [Synthetic Example 55],100 to 500
2,COc1nc(-c2ccnc(Nc3ccc(N4CCNCC4=O)cc3F)n2)cc2c1ncn2C(C)C [compound 114],100 to 500
3,CCNC1CCN(c2ccc(Nc3nccc(-c4ccn5ncc(C(C)C)c5c4)n3)nc2)C(=O)C1 (stereo not drawn) [compound 209],< 100
4,CCN1CCN(c2ccc(Nc3nccc(-c4cc5c(ncn5C(C)C)c(F)n4)n3)nc2)CC1 [compound 289],< 100
5,CC(C)n1cnc2c1CN(c1ccnc(Nc3ccc(N4CCN(S(C)(=O)=O)CC4=O)cn3)n1)CC2 [compound 240],> 1000
6,CC(C)c1cnn2c(C#N)cc(-c3ccnc(Nc4ccc(N5CCNCC5=O)cn4)n3)cc12 [compound 38],500 to 1000
7,CC(C)c1cnn2ccc(-c3ccnc(Nc4ccc(C(=O)N5CCC5)cc4)n3)cc12 [compound 169],< 100
8,CC(C)n1cnc2c(F)nc(-c3ccnc(Nc4ccc(N5CCC(C)(N)CC5=O)cn4)n3)cc21 (stereo not drawn) [compound 271],< 100
9,COc1nc(-c2ccnc(Nc3ccc(N4CCNCC4=O)nc3)n2)cc2c1ncn2C(C)C [compound 119],100 to 500
10,CC(C)n1cnc2c1CN(c1ccnc(Nc3ccc(N4CCC(N5CC(F)C5)CC4=O)cn3)n1)CC2 (stereo not drawn) [compound 243],100 to 500
11,COc1nc(-c2nc(Nc3ccc(N4CCN(CCF)CC4)cn3)ncc2F)cc2c1ncn2C(C)C [compound 125],100 to 500
12,COc1nc(-c2nc(Nc3ccc(N4CCCC4=O)cn3)ncc2F)cc2c1nc(C)n2C(C)C [compound 82],100 to 500
13,COc1nc(-c2ccnc(Nc3ccc(CN4CCC(F)(F)C4)cn3)n2)cc2c1ncn2C(C)C [compound 69],100 to 500
14,COc1nc(-c2ccnc(Nc3ccc(N4CCN(C5COC5)CC4=O)cn3)n2)cc2c1ncn2C(C)C [compound 137],< 100
15,COc1nc(-c2ccnc(Nc3ccc(N4CC5CC4CO5)cn3)n2)cc2c1ncn2C(C)C (stereo not drawn) [compound 104],100 to 500
16,COc1nc(-c2ccnc(Nc3ccc(N4CCOC(C)(C)C4)cn3)n2)cc2c1ncn2C(C)C [compound 88],100 to 500

# Test system: T47D breast cancer cells
# Experiment: Anti-proliferation assay in T47D cell (Cyquant, day 6)
# Assay type: cell-based, human
# Settings: Homo sapiens, T47D, anti-proliferation, T47D cells; read-out: T47D IC50
# Summary of the method: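 Cells were grown in RPMI 1640 with 10% FBS at 37 °C and dosed the day after plating at ten concentrations, 10 μM to 0.51 nM in 3-fold steps. CyQuant fluorescence (ex 485/em 535 nm) was read on day 6. IC50 was fitted from baseline-subtracted viability curves, with the baseline read after overnight culture.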
row,SMILES,IC50 [nM]
1,CC(C)c1cnn2ccc(-c3ccnc(Nc4ccn(CC5CCN(C(=O)CO)CC5)n4)n3)cc12 [Synthetic Example 55],500 to 1000
2,CCNC1CCN(c2ccc(Nc3nccc(-c4ccn5ncc(C(C)C)c5c4)n3)nc2)C(=O)C1 (stereo not drawn) [compound 209],< 100
3,CC(C)n1cnc2c1CN(c1ccnc(Nc3ccc(N4CCN(S(C)(=O)=O)CC4=O)cn3)n1)CC2 [compound 240],> 1000
4,CC(C)c1cnn2c(C#N)cc(-c3ccnc(Nc4ccc(N5CCNCC5=O)cn4)n3)cc12 [compound 38],> 1000
5,CC(C)n1cnc2c1CN(c1ccnc(Nc3ccc(N4CCC(N5CC(F)C5)CC4=O)cn3)n1)CC2 (stereo not drawn) [compound 243],500 to 1000
6,COc1nc(-c2nc(Nc3ccc(N4CCCC4=O)cn3)ncc2F)cc2c1nc(C)n2C(C)C [compound 82],100 to 500
7,COc1nc(-c2ccnc(Nc3ccc(CN4CCC(F)(F)C4)cn3)n2)cc2c1ncn2C(C)C [compound 69],100 to 500
8,COc1nc(-c2ccnc(Nc3ccc(N4CC5CC4CO5)cn3)n2)cc2c1ncn2C(C)C (stereo not drawn) [compound 104],100 to 500
9,COc1nc(-c2ccnc(Nc3ccc(N4CCOC(C)(C)C4)cn3)n2)cc2c1ncn2C(C)C [compound 88],100 to 500

# Target: T1, CDK2/CyclinE1 (Homo sapiens, UniProt P24941)
# T1 construct: purchased SignalChem C29-18G
# Experiment: Assay for inhibition of CDK2/CyclinE1 (Caliper microfluidic kinase assay)
# Assay type: biochemical
# Settings: CDK2/CyclinE1, 100 μM ATP; read-out: CDK2 IC50
# Summary of the method: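 Caliper microfluidic mobility-shift assay: 5 nM CDK2/CyclinE1, 100 μM ATP, 5 μM FL-18 peptide (5-FAM-QSPKKG-NH2) in pH 7.5 HEPES buffer with MgCl2, DTT, BSA, Triton X-100. Incubated 3 hours at room temperature, EDTA-stopped; IC50 from 4-parameter sigmoidal fit.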
row,SMILES,IC50 [nM]
1,CC(C)c1cnn2ccc(-c3ccnc(Nc4ccn(CC5CCN(C(=O)CO)CC5)n4)n3)cc12 [Synthetic Example 55],> 1000
2,COc1nc(-c2ccnc(Nc3ccc(N4CCNCC4=O)cc3F)n2)cc2c1ncn2C(C)C [compound 114],10 to 100
3,CCNC1CCN(c2ccc(Nc3nccc(-c4ccn5ncc(C(C)C)c5c4)n3)nc2)C(=O)C1 (stereo not drawn) [compound 209],< 10
4,CCN1CCN(c2ccc(Nc3nccc(-c4cc5c(ncn5C(C)C)c(F)n4)n3)nc2)CC1 [compound 289],100 to 1000
5,CC(C)n1cnc2c1CN(c1ccnc(Nc3ccc(N4CCN(S(C)(=O)=O)CC4=O)cn3)n1)CC2 [compound 240],10 to 100
6,CC(C)c1cnn2c(C#N)cc(-c3ccnc(Nc4ccc(N5CCNCC5=O)cn4)n3)cc12 [compound 38],> 1000
7,CC(C)c1cnn2ccc(-c3ccnc(Nc4ccc(C(=O)N5CCC5)cc4)n3)cc12 [compound 169],< 10
8,CC(C)n1cnc2c(F)nc(-c3ccnc(Nc4ccc(N5CCC(C)(N)CC5=O)cn4)n3)cc21 (stereo not drawn) [compound 271],10 to 100
9,COc1nc(-c2ccnc(Nc3ccc(N4CCNCC4=O)nc3)n2)cc2c1ncn2C(C)C [compound 119],10 to 100
10,CC(C)n1cnc2c1CN(c1ccnc(Nc3ccc(N4CCC(N5CC(F)C5)CC4=O)cn3)n1)CC2 (stereo not drawn) [compound 243],10 to 100
11,COc1nc(-c2nc(Nc3ccc(N4CCN(CCF)CC4)cn3)ncc2F)cc2c1ncn2C(C)C [compound 125],> 1000
12,COc1nc(-c2ccnc(Nc3ccc(N4CCN(C5COC5)CC4=O)cn3)n2)cc2c1ncn2C(C)C [compound 137],100 to 1000

# Same assay, conditions: CDK2/CyclinE1; read-out: CDK2 IC50
row,SMILES,IC50 [nM]
1,COc1nc(-c2nc(Nc3ccc(N4CCCC4=O)cn3)ncc2F)cc2c1nc(C)n2C(C)C [compound 82],100 to 1000
2,COc1nc(-c2ccnc(Nc3ccc(CN4CCC(F)(F)C4)cn3)n2)cc2c1ncn2C(C)C [compound 69],> 1000
3,COc1nc(-c2ccnc(Nc3ccc(N4CC5CC4CO5)cn3)n2)cc2c1ncn2C(C)C (stereo not drawn) [compound 104],> 1000
4,COc1nc(-c2ccnc(Nc3ccc(N4CCOC(C)(C)C4)cn3)n2)cc2c1ncn2C(C)C [compound 88],> 1000

# Target: T2, CDK6/CyclinD3 (Homo sapiens, UniProt Q00534)
# T2 construct: purchased Carna 04-107
# T2 sequence (Q00534 whole entry): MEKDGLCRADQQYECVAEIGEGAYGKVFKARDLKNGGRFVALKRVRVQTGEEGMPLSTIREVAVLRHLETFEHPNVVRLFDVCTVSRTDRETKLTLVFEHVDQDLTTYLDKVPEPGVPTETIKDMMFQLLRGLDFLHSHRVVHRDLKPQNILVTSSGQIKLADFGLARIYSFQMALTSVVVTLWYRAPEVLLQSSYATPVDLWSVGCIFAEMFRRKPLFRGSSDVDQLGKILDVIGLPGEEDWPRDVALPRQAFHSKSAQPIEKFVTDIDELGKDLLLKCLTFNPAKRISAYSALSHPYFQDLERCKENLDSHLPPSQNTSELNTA
# T2 sequence (P30281 whole entry partner): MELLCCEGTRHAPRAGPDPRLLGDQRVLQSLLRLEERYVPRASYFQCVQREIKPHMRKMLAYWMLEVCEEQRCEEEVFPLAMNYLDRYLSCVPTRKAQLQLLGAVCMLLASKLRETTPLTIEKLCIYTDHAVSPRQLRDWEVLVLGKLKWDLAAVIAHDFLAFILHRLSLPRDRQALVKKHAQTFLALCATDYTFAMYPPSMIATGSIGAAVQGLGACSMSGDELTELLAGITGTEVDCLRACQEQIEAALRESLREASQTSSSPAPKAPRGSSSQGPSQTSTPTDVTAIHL
# Experiment: Assay for inhibition of CDK6/CyclinD3 (Caliper microfluidic kinase assay)
# Assay type: biochemical
# Settings: CDK6/CyclinD3, 300 μM ATP
# Protocol: The CDK6 enzyme assay for IC50 determination was performed as follows. Microfluidic kinase detection technology (Caliper) was used to monitor the phosphorylation of peptide substrate by CDK6/CyclinD3. The total reaction volume is 15 μL containing buffer A (100 mM HEPES (pH 7.5), 0.1% BSA, 0.01% Triton X-100, 1 mM DTT, 10 mM MgCl2, 10 μM Sodium Orthovanadate, 10 μM Beta-Glycerophosphate), 300 μM ATP, 2 nM CDK6/CyclinD3 (Carna, 04-107), 1 μM FL-34 (5-FAM-[…]), and the test compound at appropriate dilutions in DMSO. All components were added to the 384-well plate (Corning, 4514), and incubated at Room Temperature for 3 hours. The reaction was terminated by addition of 15 μL Stop Buffer (180 mM HEPES (pH 7.5), 20 mM EDTA, Coating-3 reagent (PerkinElmer, 760050)). The plate was then loaded on Caliper EZ Reader (EZ Reader II, PerkinElmer, HD-4HYSG2772), and the reaction mixtures including substrate and product were sipped into the microfluidic chip for separation and detection. The IC50 values of the test compound were determined by fitting the inhibition curves by 4 parameter sigmoidal dose-response model using the Xlfit5/GraphPad Prism 5 software.
row,SMILES,IC50 [nM]
1,COc1nc(-c2ccnc(Nc3ccc(N4CCNCC4=O)cc3F)n2)cc2c1ncn2C(C)C [compound 114],10 to 100
2,CCN1CCN(c2ccc(Nc3nccc(-c4cc5c(ncn5C(C)C)c(F)n4)n3)nc2)CC1 [compound 289],< 10
3,CC(C)c1cnn2ccc(-c3ccnc(Nc4ccc(C(=O)N5CCC5)cc4)n3)cc12 [compound 169],10 to 100
4,CC(C)n1cnc2c(F)nc(-c3ccnc(Nc4ccc(N5CCC(C)(N)CC5=O)cn4)n3)cc21 (stereo not drawn) [compound 271],< 10
5,COc1nc(-c2ccnc(Nc3ccc(N4CCNCC4=O)nc3)n2)cc2c1ncn2C(C)C [compound 119],10 to 100
6,COc1nc(-c2ccnc(Nc3ccc(N4CCN(C5COC5)CC4=O)cn3)n2)cc2c1ncn2C(C)C [compound 137],10 to 100

# Target: T3, CDK4/CyclinD1 (Homo sapiens, UniProt P11802)
# T3 construct: purchased Thermofisher PR8064A
# T3 sequence (P11802 whole entry): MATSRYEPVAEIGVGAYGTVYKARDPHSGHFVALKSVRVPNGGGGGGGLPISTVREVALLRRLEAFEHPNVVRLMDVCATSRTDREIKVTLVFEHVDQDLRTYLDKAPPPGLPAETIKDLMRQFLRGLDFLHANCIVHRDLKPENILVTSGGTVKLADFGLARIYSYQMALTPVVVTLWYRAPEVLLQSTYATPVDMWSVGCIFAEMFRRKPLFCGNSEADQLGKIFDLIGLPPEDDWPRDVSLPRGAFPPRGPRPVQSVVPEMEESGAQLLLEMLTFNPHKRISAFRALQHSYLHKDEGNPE
# T3 sequence (P24385 whole entry partner): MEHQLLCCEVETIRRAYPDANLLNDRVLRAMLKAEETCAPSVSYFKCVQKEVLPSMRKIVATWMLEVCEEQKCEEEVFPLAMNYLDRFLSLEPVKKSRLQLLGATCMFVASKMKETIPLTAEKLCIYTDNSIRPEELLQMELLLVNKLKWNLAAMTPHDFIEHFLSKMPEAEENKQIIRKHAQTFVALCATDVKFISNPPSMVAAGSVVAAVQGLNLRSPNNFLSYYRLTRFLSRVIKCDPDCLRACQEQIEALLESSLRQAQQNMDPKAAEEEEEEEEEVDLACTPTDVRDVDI
# Experiment: Assay for inhibition of CDK4/CyclinD1 (Caliper microfluidic kinase assay)
# Assay type: biochemical
# Settings: CDK4/CyclinD1
# Summary of the method: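 Caliper microfluidic mobility-shift assay tracking phosphorylation of 1 μM FL-34 peptide by 1 nM CDK4/CyclinD1 with 200 μM ATP in HEPES pH 7.5 buffer with 10 mM MgCl2. Reaction ran 3 h at room temperature, was stopped with EDTA, and IC50 came from a 4-parameter sigmoidal fit.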
row,SMILES,IC50 [nM]
1,COc1nc(-c2nc(Nc3ccc(N4CCCC4=O)cn3)ncc2F)cc2c1nc(C)n2C(C)C [compound 82],10 to 100
2,COc1nc(-c2ccnc(Nc3ccc(CN4CCC(F)(F)C4)cn3)n2)cc2c1ncn2C(C)C [compound 69],10 to 100
3,COc1nc(-c2ccnc(Nc3ccc(N4CC5CC4CO5)cn3)n2)cc2c1ncn2C(C)C (stereo not drawn) [compound 104],10 to 100
4,COc1nc(-c2ccnc(Nc3ccc(N4CCOC(C)(C)C4)cn3)n2)cc2c1ncn2C(C)C [compound 88],10 to 100

# Same assay, conditions: CDK4/CyclinD1, 200 μM ATP
row,SMILES,IC50 [nM]
1,CC(C)c1cnn2ccc(-c3ccnc(Nc4ccn(CC5CCN(C(=O)CO)CC5)n4)n3)cc12 [Synthetic Example 55],10 to 100
2,COc1nc(-c2ccnc(Nc3ccc(N4CCNCC4=O)cc3F)n2)cc2c1ncn2C(C)C [compound 114],< 10
3,CCNC1CCN(c2ccc(Nc3nccc(-c4ccn5ncc(C(C)C)c5c4)n3)nc2)C(=O)C1 (stereo not drawn) [compound 209],< 10
4,CCN1CCN(c2ccc(Nc3nccc(-c4cc5c(ncn5C(C)C)c(F)n4)n3)nc2)CC1 [compound 289],< 10
5,CC(C)n1cnc2c1CN(c1ccnc(Nc3ccc(N4CCN(S(C)(=O)=O)CC4=O)cn3)n1)CC2 [compound 240],10 to 100
6,CC(C)c1cnn2c(C#N)cc(-c3ccnc(Nc4ccc(N5CCNCC5=O)cn4)n3)cc12 [compound 38],10 to 100
7,CC(C)c1cnn2ccc(-c3ccnc(Nc4ccc(C(=O)N5CCC5)cc4)n3)cc12 [compound 169],< 10
8,CC(C)n1cnc2c(F)nc(-c3ccnc(Nc4ccc(N5CCC(C)(N)CC5=O)cn4)n3)cc21 (stereo not drawn) [compound 271],< 10
9,COc1nc(-c2ccnc(Nc3ccc(N4CCNCC4=O)nc3)n2)cc2c1ncn2C(C)C [compound 119],< 10
10,CC(C)n1cnc2c1CN(c1ccnc(Nc3ccc(N4CCC(N5CC(F)C5)CC4=O)cn3)n1)CC2 (stereo not drawn) [compound 243],10 to 100
11,COc1nc(-c2nc(Nc3ccc(N4CCN(CCF)CC4)cn3)ncc2F)cc2c1ncn2C(C)C [compound 125],10 to 100
12,COc1nc(-c2ccnc(Nc3ccc(N4CCN(C5COC5)CC4=O)cn3)n2)cc2c1ncn2C(C)C [compound 137],< 10

# Source: patent US20220296595A1, “CDK INHIBITORS” (QILU REGOR THERAPEUTICS INC., priority 2019, published 2022)
